Here are results for 2 compounds from patent US9353082B2, “Pharmaceutical compounds” (BIAL—PORTELA & CA, S.A., priority 2008, dated 2016).

Test [1] concerns the target T1, FAAH (Mus musculus, UniProt O08914).
T1 construct: A fragment of liver, left lung lobe and brain without cerebellum were removed; from tissue; host or cells: male NMRI mice; brain (without cerebellum) and liver homogenates
T1 sequence (O08914 1-579): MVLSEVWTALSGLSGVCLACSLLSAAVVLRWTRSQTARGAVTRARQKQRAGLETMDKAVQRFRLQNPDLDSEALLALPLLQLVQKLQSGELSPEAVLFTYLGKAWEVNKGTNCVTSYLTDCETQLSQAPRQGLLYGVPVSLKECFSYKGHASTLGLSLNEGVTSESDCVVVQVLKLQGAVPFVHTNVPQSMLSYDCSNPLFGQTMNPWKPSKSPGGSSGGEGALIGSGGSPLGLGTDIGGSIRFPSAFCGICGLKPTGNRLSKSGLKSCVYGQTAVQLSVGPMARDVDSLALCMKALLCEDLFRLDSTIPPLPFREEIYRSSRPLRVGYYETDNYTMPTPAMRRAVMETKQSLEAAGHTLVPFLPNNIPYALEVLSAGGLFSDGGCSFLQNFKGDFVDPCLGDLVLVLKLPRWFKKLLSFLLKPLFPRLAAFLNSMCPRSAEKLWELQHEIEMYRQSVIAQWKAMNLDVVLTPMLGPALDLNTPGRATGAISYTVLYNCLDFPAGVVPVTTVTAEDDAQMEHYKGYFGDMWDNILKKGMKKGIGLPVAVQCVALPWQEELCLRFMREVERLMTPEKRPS
The test can be described thus: In vivo FAAH inhibition after oral dosing, remaining activity in brain homogenate (BRh, central nervous tissue). Also on record: species or system NMRI mice. Particulars: 3 mg/kg oral, 8 h; for In Vivo BRh 3 mg · kg · 8 h (remaining FAAH activity): brain homogenate, low value = strong inhibitor; for FAAH BRh 3 mg · kg · 8 h: in vivo, mouse brain, remaining enzymatic activity. In outline:
(§1)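 Remaining FAAH activity is given as % of vehicle-treated controls after blank subtraction, measured by radiolabelled AEA hydrolysis (2 μM AEA, 5 nM 3H-AEA, 37 °C) in brain (10 min) or liver (7 min) homogenates. These came from fasted male NMRI mice dosed orally at 30 or 3 mg/kg.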

Test [2] concerns the target T1, FAAH. The test can be described thus: In vivo FAAH inhibition after oral dosing, remaining activity in liver homogenate (LVh, peripheral tissue). Also on record: species or system NMRI mice. Particulars: 3 mg/kg oral, 8 h; for FAAH LVh 3 mg · kg · 8 h: in vivo, mouse liver, remaining enzymatic activity; for In Vivo LVh 3 mg · kg · 8 h (remaining FAAH activity): liver homogenate, low value = strong inhibitor. A digest of the protocol:
as §1

Test [3] concerns the target T2, monoacylglycerol lipase (MAGL) (Rattus norvegicus, UniProt Q8R431).
T2 construct: cerebella cytosol (CRBcyt) fractions, previously obtained from adult WISTAR rats; from tissue; host or cells: adult Wistar rat cerebella, cytosol fraction
T2 sequence (Q8R431 1-303): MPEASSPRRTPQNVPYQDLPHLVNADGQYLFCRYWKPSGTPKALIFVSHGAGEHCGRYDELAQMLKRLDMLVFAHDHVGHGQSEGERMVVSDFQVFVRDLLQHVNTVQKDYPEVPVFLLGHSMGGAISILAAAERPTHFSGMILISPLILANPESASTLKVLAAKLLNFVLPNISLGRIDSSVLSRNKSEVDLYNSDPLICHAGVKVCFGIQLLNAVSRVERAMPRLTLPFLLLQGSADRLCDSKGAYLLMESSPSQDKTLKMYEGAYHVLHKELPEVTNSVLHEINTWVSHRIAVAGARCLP
In words: MAGL activity in rat cerebella cytosol (CRBcyt), hydrolysis of [3H] 2-OG. The test is classed as biochemical, WISTAR rats. Particulars: 12.5 uM compound, remaining MAGL activity. The method, then: (§2) FAAH inhibition was determined as described above. Inhibition of monoacylglycerol lipase (MAGL) and carboxylesterase (CE) was performed according to the protocols described below. The controls for both in vitro and in vivo were the reaction mix minus the test compounds. Therefore, a low value in Table 2 below for the test compounds indicates a strong inhibitor.
MAGL activity measurement was based on rate of hydrolysis of [^3H] 2-OG (glycerol labeled) as substrate. Briefly, cerebella cytosol (CRBcyt) fractions, previously obtained from adult WISTAR rats, were diluted to appropriate assay protein concentrations in Tris-HCl buffer (10 mM, pH 7.2) containing 1 mM EDTA, and were added to assay tubes containing test compound. Blanks contained assay buffer instead of cytosol samples were used as control. […] The final assay contained 0.125% w v^−1 fatty acid-free BSA. After the incubation phase, reactions were stopped by adding 400 μL chloroform:methanol (1/1 v v^−1), vortex mixing the tubes two times and placing them on ice. Phases were separated by centrifugation and 200 μL aliquots of the methanol/buffer phase were taken and tritium content assayed by liquid scintillation spectroscopy with quench correction.

For test [4], the system named is carboxylesterase (CE). The test can be described thus: Carboxylesterase (CE) activity in mouse liver microsomes (LVms), p-nitrophenyl acetate. The class given is biochemical. The following applies: 10 uM compound, read 10 min after substrate, remaining CE activity. How it is done: as §2
(§3) CE activity measurement is based on the formation of p-nitrophenol from p-nitrophenyl acetate. Briefly, in 96-well plates 8 μg/ml of rat or mouse liver microsomes (LVms) were incubated with 10 μM FAAH inhibitors for 15 min and then the substrate, p-nitrophenyl acetate, was added to a final concentration of 1 mM. The plate was read at 405 nm 10 min after substrate addition for the appearance of p-nitrophenol using a spectrophotometer. The carboxylesterase activity in microsome extracts without inhibitor added were set at 100% as control and the remaining CE activities after incubation with inhibitors were calculated relative to the control.
A general note: Liver microsomes are vesicles of endoplasmic reticulum, rich in cytochrome P450 enzymes.

The subject of test [5] is carboxylesterase (CE). In words: Carboxylesterase (CE) activity in rat liver microsomes (LVms), p-nitrophenyl acetate. The test is classed as biochemical. Particulars: 10 uM compound, read 10 min after substrate, remaining CE activity. How it is done:
as §2, §3

`CN(C(=O)n1cnc(-c2ccc(S(C)(=O)=O)cc2)c1)C1CCN(Cc2ccccc2)CC1` [Compound 567, N-(1-benzylpiperidin-4-yl)-N-methyl-4-(4-(methylsulfonyl)phenyl)-1H-imidazole-1-carboxamide]: at FAAH [1], the “In Vivo BRh 3 mg · kg · 8 h (remaining FAAH activity)” value is 87.8 % of control and the “FAAH BRh 3 mg · kg · 8 h” value is 87.8 % of control. Moreover, at FAAH [2], the “FAAH LVh 3 mg · kg · 8 h” value was 6.3 % of control and the “In Vivo LVh 3 mg · kg · 8 h (remaining FAAH activity)” value is given as 6.3 % of control. Moreover, the “MAGL Rat CRBcyto 12.5 uM 8 min” value in test [3] was 94.2 % of control. For the same compound, the “CE Mou LVms 10 uM 10 min” value in the test on carboxylesterase (CE) [4] was 88.6 % of control. Also, in the test on carboxylesterase (CE) [5], the “CE Rat LVms 10 uM 10 min” value was 97.8 % of control.

As for `CN(C(=O)n1cnc(-c2ccc3oc(=O)[nH]c3c2)c1)C1CCCC1` [Compound 564, N-cyclopentyl-N-methyl-4-(2-oxo-2,3-dihydrobenzo[d]oxazol-5-yl)-1H-imidazole-1-carboxamide], on FAAH [1], the “In Vivo BRh 3 mg · kg · 8 h (remaining FAAH activity)” value is given as 37.6 % of control and the “FAAH BRh 3 mg · kg · 8 h” value is 37.6 % of control. In addition, at FAAH [2], the “FAAH LVh 3 mg · kg · 8 h” value is recorded as 2.3 % of control and the “In Vivo LVh 3 mg · kg · 8 h (remaining FAAH activity)” value is listed as 2.3 % of control. Further, the “MAGL Rat CRBcyto 12.5 uM 8 min” value in test [3] is recorded as 91.6 % of control. The “CE Mou LVms 10 uM 10 min” value in the test with carboxylesterase (CE) [4] is given as 87.4 % of control. In addition, the “CE Rat LVms 10 uM 10 min” value in the test with carboxylesterase (CE) [5] was 96.1 % of control.
